Measured values reported in PMC10933344, “A lncRNA Dleu2-encoded peptide relieves autoimmunity by facilitating Smad3-mediated Treg induction” (EMBO Reports, 2024).

System: CD4+ T cells in spleen of EAE mice
Assay: Flow cytometry of spleen T cells of treated EAE mice
Format: in vivo, mouse
Conditions: 100 μg i.v.
Protocol: Figure 5 Dleu2-17aa attenuates EAE by promoting Treg cells. (A) Schematic diagram of MOG-induced EAE and treatment strategies with Dleu2-17aa, scrPEP, and Glatiramer. Mice received 100 μg of Dleu2-17aa or scrPEP every 3 days via i.v. injection or 150 μg of Glatiramer every day for seven times via s.c. on days 9 to 15. (B) Clinical scores were examined daily from day 9 using a scoring system ranging from 0 (no sign) to 5 (complete paralysis or dead). The x-axis represents experimental days, and the y-axis represents symptom severity (n = 8–9). (C) Representative Luxol fast blue (LFB) and hematoxylin and eosin staining (H&E) staining sections for treated EAE spinal cord. Scale bars: 100 μm. (D) Histopathology scores of inflammations and demyelination in treated EAE mice spinal cord using a scoring system ranging from 0 (no inflammatory cells or demyelination) to 4 (extensive inflammatory cells infiltration or confluent foci of demyelination) (n = 5–8). (E) Representative dot plots (left panel) and frequency (right panel) of CD44^hiCD62L^lo activated T cells, Foxp3^+ Treg cells, IL-17A^+ Th17 cells, and IFN-γ^+ Th1 cells gated on CD4^+ T cells in the spleen 14 days post immunization of MOG (n = 3). (F) Representative dot plots and frequency of CD4^+, Foxp3^+ Treg cells, and IFN-γ^+ Th1 cells gated on CD4^+ T cells in the CNS 14 days post immunization of MOG (n = 3). Data information: n indicates biological replicate. Error bars are mean ± SEM; *P < 0.05, **P < 0.01, and ***P < 0.001, n.s. indicates no significant difference. Statistical analysis was by two-way ANOVA for (B) and two-tailed Student’s t-test for (D–F). Source data are available online for this figure. TEXT PRINTED IN THE PICTURE: (E) scrPEP: Spleen: CD62L-PE-DF594 / CD44-PE: 78.2; Spleen: Foxp3-PE / CD4-APC: 7.38; Spleen: IFN-γ-Percp-cy5.5 / Il-17A-FITC: 4.67; Spleen: IFN-γ-Percp-cy5.5 / Il-17A-FITC: 0.18; Spleen: IFN-γ-Percp-cy5.5 / Il-17A-FITC: 94.7; Spleen: IFN-γ-Percp-cy5.5 / Il-17A-FITC: 0.44 | (E) Dleu2-17aa: Spleen: CD62L-PE-DF594 / CD44-PE: 37.2; Spleen: Foxp3-PE / CD4-APC: 12.9; Spleen: IFN-γ-Percp-cy5.5 / Il-17A-FITC: 2.83; Spleen: IFN-γ-Percp-cy5.5 / Il-17A-FITC: 0.26; Spleen: IFN-γ-Percp-cy5.5 / Il-17A-FITC: 96.1; Spleen: IFN-γ-Percp-cy5.5 / Il-17A-FITC: 0.79 | (F) scrPEP: CNS: FSC / CD4-APC: 9.03; CNS: Foxp3-PE / CD4-APC: 8.47; CNS: IFN-γ-Percp-cy5.5 / Il-17A-FITC: 22.9; CNS: IFN-γ-Percp-cy5.5 / Il-17A-FITC: 2.00; CNS: IFN-γ-Percp-cy5.5 / Il-17A-FITC: 69.7; CNS: IFN-γ-Percp-cy5.5 / Il-17A-FITC: 5.44 | (F) Dleu2-17aa: CNS: FSC / CD4-APC: 3.33; CNS: Foxp3-PE / CD4-APC: 15.5; CNS: IFN-γ-Percp-cy5.5 / Il-17A-FITC: 13.9; CNS: IFN-γ-Percp-cy5.5 / Il-17A-FITC: 2.65; CNS: IFN-γ-Percp-cy5.5 / Il-17A-FITC: 77.7; CNS: IFN-γ-Percp-cy5.5 / Il-17A-FITC: 5.79 DOUBTS OF THE COPYIST ABOUT THIS PICTURE: Panels E and F: the gate and quadrant numbers in the dot plots are printed with no measure or unit; the tissue heading and the axis labels of each plot are written in front of them. For the quadrant plots the order is upper left, upper right, lower left, lower right. / Panels E and F: the gate numbers are in small print, so 3, 5, 6, 8 and 9 are best readings: E scrPEP 78.2, 7.38, 4.67, 0.18, 94.7; E Dleu2-17aa 37.2, 12.9, 2.83, 0.26, 96.1, 0.79; F scrPEP 9.03, 8.47, 22.9, 69.7, 5.44; F Dleu2-17aa 3.33, 15.5, 13.9, 2.65, 5.79.
For active EAE immunization, myelin oligodendrocyte glycoprotein peptide (MOGp35–55, […], GenScript) was emulsified in complete Freund adjuvant (Sigma-Aldrich). An equivalent of 300 μg MOG peptide was injected per mouse subcutaneously followed by 200 ng of pertussis toxin (Merck-Calbiochem) injection intravenously on day 0 and day 2 of immunization. […]

**Q.** Which “CD62LloCD44+/ CD4+ Cells(%)” value (replicate 1) does the source give for “ARGPARRMRGGRRRRLR [scrPEP, scrambled control peptide of Dleu2-17aa]” here?
**A.** 58.3%

**Q.** And the “Foxp3+/ CD4+ Cells (%)” value (replicate 1)?
**A.** 7.65%

**Q.** And the “IFN-γ+/ CD4+ Cells(%)” value (replicate 1)?
**A.** 4.58%

**Q.** What about the “CD62LloCD44+/ CD4+ Cells(%)” value (replicate 2) of the same sequence?
**A.** 60.9%

**Q.** And the “Foxp3+/ CD4+ Cells (%)” value (replicate 2)?
**A.** 6.51%

**Q.** What about the “IFN-γ+/ CD4+ Cells(%)” value (replicate 2) of the same sequence?
**A.** 4.35%

**Q.** What about the “CD62LloCD44+/ CD4+ Cells(%)” value (replicate 3) of the same sequence?
**A.** 61.3%

**Q.** What about the “Foxp3+/ CD4+ Cells (%)” value (replicate 3) of the same sequence?
**A.** 6.5%

**Q.** And the “IFN-γ+/ CD4+ Cells(%)” value (replicate 3)?
**A.** 4.11%

**Q.** What about the “CD62LloCD44+/ CD4+ Cells(%)” value (replicate 4) of the same sequence?
**A.** 78.2%

**Q.** And the “Foxp3+/ CD4+ Cells (%)” value (replicate 4)?
**A.** 6.85%

**Q.** What about the “IFN-γ+/ CD4+ Cells(%)” value (replicate 4) of the same sequence?
**A.** 4.28%
